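Following 48 hours of exposure in 96-well plates, responses at five concentrations were used to interpolate endpoints linearly. At the GI50, growth is halved. TGI marks complete inhibition of growth.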
Assays:
Assay in all cases: DTP human tumour cell line panel, 48 h
786-0 renal = tested on: 786-0 renal
A498 renal = tested on: A498 renal
A549 NSCLC = tested on: A549 NSCLC
ACHN renal = tested on: ACHN renal
BT-549 breast = tested on: BT-549 breast
CAKI-1 renal = tested on: CAKI-1 renal
CCRF-CEM leukemia = tested on: CCRF-CEM leukemia
COLO 205 colon = tested on: COLO 205 colon
DU-145 prostate = tested on: DU-145 prostate
EKVX NSCLC = tested on: EKVX NSCLC
HCC-2998 colon = tested on: HCC-2998 colon
HCT-116 colon = tested on: HCT-116 colon
HCT-15 colon = tested on: HCT-15 colon
HL-60(TB) leukemia = tested on: HL-60(TB) leukemia
HOP-62 NSCLC = tested on: HOP-62 NSCLC
HOP-92 NSCLC = tested on: HOP-92 NSCLC
HS 578T breast = tested on: HS 578T breast
HT29 colon = tested on: HT29 colon
IGROV1 ovarian = tested on: IGROV1 ovarian
K-562 leukemia = tested on: K-562 leukemia
KM12 colon = tested on: KM12 colon
LOX IMVI melanoma = tested on: LOX IMVI melanoma
M14 melanoma = tested on: M14 melanoma
MALME-3M melanoma = tested on: MALME-3M melanoma
MCF7 breast = tested on: MCF7 breast
MDA-MB-231 breast = tested on: MDA-MB-231 breast
MDA-MB-435 = tested on: MDA-MB-435
MOLT-4 leukemia = tested on: MOLT-4 leukemia
NCI-H226 lung = tested on: NCI-H226 lung
NCI-H23 lung = tested on: NCI-H23 lung
NCI-H460 lung = tested on: NCI-H460 lung
NCI-H522 lung = tested on: NCI-H522 lung
NCI/ADR-RES ovarian = tested on: NCI/ADR-RES ovarian
OVCAR-3 ovarian = tested on: OVCAR-3 ovarian
OVCAR-4 ovarian = tested on: OVCAR-4 ovarian
OVCAR-5 ovarian = tested on: OVCAR-5 ovarian
OVCAR-8 ovarian = tested on: OVCAR-8 ovarian
PC-3 prostate = tested on: PC-3 prostate
RPMI-8226 leukemia = tested on: RPMI-8226 leukemia
RXF 393 renal = tested on: RXF 393 renal
SF-268 CNS = tested on: SF-268 CNS
SF-295 CNS = tested on: SF-295 CNS
SF-539 CNS = tested on: SF-539 CNS
SK-MEL-2 melanoma = tested on: SK-MEL-2 melanoma
SK-MEL-28 melanoma = tested on: SK-MEL-28 melanoma
SK-MEL-5 melanoma = tested on: SK-MEL-5 melanoma
SK-OV-3 ovarian = tested on: SK-OV-3 ovarian
SN12C renal = tested on: SN12C renal
SNB-19 CNS = tested on: SNB-19 CNS
SNB-75 CNS = tested on: SNB-75 CNS
SR leukemia = tested on: SR leukemia
SW-620 colon = tested on: SW-620 colon
T-47D breast = tested on: T-47D breast
TK-10 renal = tested on: TK-10 renal
U251 CNS = tested on: U251 CNS
UACC-257 melanoma = tested on: UACC-257 melanoma
UACC-62 melanoma = tested on: UACC-62 melanoma
UO-31 renal = tested on: UO-31 renal

SMILES: CCOC(=O)Cn1c(C)c(/C=N/NC(=O)c2cc3c(ccc4ccccc43)o2)c2ccccc21
- GI50 (786-0 renal): 491 nM
- TGI (786-0 renal): 2240 nM
- GI50 (A498 renal): 134 nM
- TGI (A498 renal): 1040 nM
- GI50 (A549 NSCLC): 627 nM
- TGI (A549 NSCLC): 5850 nM
- GI50 (ACHN renal): 926 nM
- TGI (ACHN renal): 3210 nM
- GI50 (BT-549 breast): 853 nM
- TGI (BT-549 breast): 5130 nM
- GI50 (CAKI-1 renal): 575 nM
- TGI (CAKI-1 renal): 2370 nM
- GI50 (CCRF-CEM leukemia): 410 nM
- TGI (CCRF-CEM leukemia): > 100000 nM
- GI50 (COLO 205 colon): 401 nM
- GI50 (DU-145 prostate): 411 nM
- TGI (DU-145 prostate): 2930 nM
- GI50 (EKVX NSCLC): 662 nM
- TGI (EKVX NSCLC): 42500 nM
- GI50 (HCC-2998 colon): 609 nM
- TGI (HCC-2998 colon): 2840 nM
- GI50 (HCT-116 colon): 338 nM
- TGI (HCT-116 colon): 1460 nM
- GI50 (HCT-15 colon): 408 nM
- TGI (HCT-15 colon): 5450 nM
- GI50 (HL-60(TB) leukemia): 345 nM
- TGI (HL-60(TB) leukemia): 7830 nM
- GI50 (HOP-62 NSCLC): 554 nM
- TGI (HOP-62 NSCLC): 4790 nM
- GI50 (HOP-92 NSCLC): 354 nM
- TGI (HOP-92 NSCLC): 4940 nM
- GI50 (HS 578T breast): 514 nM
- TGI (HS 578T breast): 25200 nM
- GI50 (HT29 colon): 355 nM
- TGI (HT29 colon): 1900 nM
- GI50 (IGROV1 ovarian): 527 nM
- TGI (IGROV1 ovarian): 3470 nM
- GI50 (K-562 leukemia): 342 nM
- TGI (K-562 leukemia): > 100000 nM
- GI50 (KM12 colon): 306 nM
- TGI (KM12 colon): 1520 nM
- GI50 (LOX IMVI melanoma): 537 nM
- TGI (LOX IMVI melanoma): 2780 nM
- GI50 (M14 melanoma): 307 nM
- TGI (M14 melanoma): 4350 nM
- GI50 (MALME-3M melanoma): 575 nM
- TGI (MALME-3M melanoma): 3220 nM
- GI50 (MCF7 breast): 310 nM
- TGI (MCF7 breast): 4850 nM
- GI50 (MDA-MB-231 breast): 702 nM
- TGI (MDA-MB-231 breast): 3330 nM
- GI50 (MDA-MB-435): 47.4 nM
- TGI (MDA-MB-435): 251 nM
- GI50 (MOLT-4 leukemia): 960 nM
- TGI (MOLT-4 leukemia): > 30100 nM
- GI50 (NCI-H226 lung): 801 nM
- TGI (NCI-H226 lung): 5390 nM
- GI50 (NCI-H23 lung): 669 nM
- TGI (NCI-H23 lung): 6910 nM
- GI50 (NCI-H460 lung): 383 nM
- TGI (NCI-H460 lung): 1790 nM
- GI50 (NCI-H522 lung): 399 nM
- TGI (NCI-H522 lung): 6930 nM
- GI50 (NCI/ADR-RES ovarian): 259 nM
- TGI (NCI/ADR-RES ovarian): 3080 nM
- GI50 (OVCAR-3 ovarian): 319 nM
- TGI (OVCAR-3 ovarian): 1870 nM
- GI50 (OVCAR-4 ovarian): 1360 nM
- TGI (OVCAR-4 ovarian): 9270 nM
- GI50 (OVCAR-5 ovarian): 872 nM
- TGI (OVCAR-5 ovarian): 10700 nM
- GI50 (OVCAR-8 ovarian): 486 nM
- GI50 (PC-3 prostate): 332 nM
- TGI (PC-3 prostate): 6000 nM
- GI50 (RPMI-8226 leukemia): 443 nM
- TGI (RPMI-8226 leukemia): 3120 nM
- GI50 (RXF 393 renal): 319 nM
- TGI (RXF 393 renal): 1080 nM
- GI50 (SF-268 CNS): 1030 nM
- GI50 (SF-295 CNS): 323 nM
- TGI (SF-295 CNS): 1650 nM
- GI50 (SF-539 CNS): 316 nM
- TGI (SF-539 CNS): 1280 nM
- GI50 (SK-MEL-2 melanoma): 770 nM
- TGI (SK-MEL-2 melanoma): 7050 nM
- GI50 (SK-MEL-28 melanoma): 1660 nM
- TGI (SK-MEL-28 melanoma): 30500 nM
- GI50 (SK-MEL-5 melanoma): 381 nM
- TGI (SK-MEL-5 melanoma): 1710 nM
- GI50 (SK-OV-3 ovarian): 804 nM
- TGI (SK-OV-3 ovarian): 9440 nM
- GI50 (SN12C renal): 707 nM
- TGI (SN12C renal): 3850 nM
- GI50 (SNB-19 CNS): 478 nM
- TGI (SNB-19 CNS): 16300 nM
- GI50 (SNB-75 CNS): 244 nM
- TGI (SNB-75 CNS): 1420 nM
- GI50 (SR leukemia): 153 nM
- TGI (SR leukemia): > 21800 nM
- GI50 (SW-620 colon): 480 nM
- TGI (SW-620 colon): 11400 nM
- GI50 (T-47D breast): 653 nM
- TGI (T-47D breast): > 27800 nM
- GI50 (TK-10 renal): 1260 nM
- TGI (TK-10 renal): 3920 nM
- GI50 (U251 CNS): 426 nM
- TGI (U251 CNS): 4170 nM
- GI50 (UACC-257 melanoma): 2380 nM
- TGI (UACC-257 melanoma): > 30400 nM
- GI50 (UACC-62 melanoma): 300 nM
- TGI (UACC-62 melanoma): 11000 nM
- GI50 (UO-31 renal): 753 nM
- TGI (UO-31 renal): 2610 nM
